According to ChEMBL document CHEMBL3045589, “Aromatic amino analogues of artemisinin: synthesis and in vivo antimalarial activity” (2010):

tested on: Plasmodium yoelii nigeriensis; assay: Antimalarial activity against Plasmodium yoelii nigeriensis infected in po-dosed Swiss albino mouse assessed as inhibition of parasite growth administered qd for 4 days; type: functional; conditions: 96 h

| Compound | ED50 | ED90 |
| --- | --- | --- |
| C[C@@H]1CC[C@@H]2[C@]34OO[C@](C)(CC[C@@H]13)O[C@H]4OC(Nc1ccc(O)c(CN3CCN(c4cccc(C(F)(F)F)c4)CC3)c1)[C@@]2(C)Br (stereo not given in full) | 6.01 mg/kg | 9.28 mg/kg |
| C[C@@H]1CC[C@@H]2[C@]34OO[C@](C)(CC[C@@H]13)O[C@H]4OC(Nc1ccc(O)c(CN3CCN(c4ccccn4)CC3)c1)[C@@]2(C)Br (stereo not given in full) | 7.9 mg/kg | 12.2 mg/kg |
| C[C@@H]1CC[C@@H]2[C@]34OO[C@](C)(CC[C@@H]13)O[C@H]4OC(Nc1ccc(O)c(CN3CCCCC3)c1)[C@@]2(C)Br (stereo not given in full) | 11.3 mg/kg | 23.1 mg/kg |
| C[C@@H]1CC[C@@H]2[C@]34OO[C@](C)(CC[C@@H]13)O[C@H]4OC(Nc1ccc(O)c(CN3CCN(Cc4ccccc4)CC3)c1)[C@@]2(C)Br (stereo not given in full) | 7.12 mg/kg | 12.1 mg/kg |
| CCN(CC)Cc1cc(NC2O[C@@H]3O[C@@]4(C)CC[C@H]5[C@H](C)CC[C@H]([C@@]35OO4)[C@]2(C)Br)ccc1O (stereo not given in full) | 12.3 mg/kg | 24.2 mg/kg |
| C[C@@H]1CC[C@@H]2[C@]34OO[C@](C)(CC[C@@H]13)O[C@H]4OC(Nc1ccc(O)c(CN3CCN(C)CC3)c1)[C@@]2(C)Br (stereo not given in full) | 9.9 mg/kg | 17.4 mg/kg |
| C[C@@H]1CC[C@@H]2[C@]34OO[C@](C)(CC[C@@H]13)O[C@H]4OC(Nc1ccc(O)c(CN3CCN(c4ccccc4)CC3)c1)[C@@]2(C)Br (stereo not given in full) | 5.41 mg/kg | 8.72 mg/kg |
| C[C@@H]1CC[C@H]2[C@@H](C)C(=O)O[C@@H]3O[C@@]4(C)CC[C@@H]1[C@]32OO4 [ARTEMISININ] | 16.4 mg/kg | 27.1 mg/kg |
| CCN1CCN(Cc2cc(NC3O[C@@H]4O[C@@]5(C)CC[C@H]6[C@H](C)CC[C@H]([C@@]46OO5)[C@]3(C)Br)ccc2O)CC1 (stereo not given in full) | 9.83 mg/kg | 16.6 mg/kg |
| C[C@@H]1CC[C@@H]2[C@]34OO[C@](C)(CC[C@@H]13)O[C@H]4OC(Nc1ccc(O)c(CN3CCNCC3)c1)[C@@]2(C)Br (stereo not given in full) | 12.4 mg/kg | 24.6 mg/kg |
